Experimental data as given in patent US12617752B2, “Rapidly metabolized lipid compound” (Beijing Jitai Life Sciences Ltd, priority 2023, dated 2026).

Assays:
[1] = Encapsulation efficiency of lipid nanoparticles (Quant-it RiboGreen RNA Assay); type: physicochemical; conditions: lipid nanoparticles with luciferase mRNA
Outline: (§1)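 LNPs of ionizable lipid/cholesterol/phospholipid/PEG-lipid (50/38.5/10/1.5 mol%, N/P 6) were formed by microfluidic mixing with mRNA in pH 4.5 acetate, then buffer-exchanged by ultrafiltration. Size and PDI were measured by DLS. Encapsulation came from RiboGreen fluorescence (485/528 nm) in TE pH 7.5, with and without 0.5% Triton at 37 °C for 30 min.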

C57BL/6 mice = test: In vivo delivery of luciferase mRNA lipid nanoparticles in mice (bioluminescence imaging); conditions: intravenous, single dose 0.5 mg/kg luciferase mRNA
Outline: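 Female C57BL/6 mice, 6-8 weeks old, received luciferase mRNA lipid nanoparticles as a single intravenous dose of 0.5 mg/kg mRNA. At 6 h, D-luciferin given intraperitoneally; 10 min later, mice were imaged under isoflurane anaesthesia. Values are group mean fluorescence intensity and total photon count.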

[2] = Particle size and PDI of lipid nanoparticles by dynamic light scattering; type: physicochemical; conditions: lipid nanoparticles with luciferase mRNA; ionizable lipid/cholesterol/DSPC/DMG-PEG2000 50/38.5/10/1.5 mol%
Outline: as §1

Row | Structure (SMILES) | Encapsulation efficiency (%) [1] [%] | Particle size (nm) [2] [nm] | Particle-size distribution (PDI) [2] | Total photon count in vivo at 6 hours after administration (Total Flux) (C57BL/6 mice)
1 | CCCCCCCCCCC(=O)OCCCC(C)(C)CCCN(CCO)CCCCCCCC(=O)OCCC(CCCCCCC)CCCCCCC [80b] | 93.59 | 93.39 | 0.18 | 8.94E+10
2 | CCCCCCCCCCC(=O)OCCCC(C)(C)CCCN(CCCO)CCCCCCCC(=O)OCCC(CCCCCCC)CCCCCCC [81b] | 92.87 | 107.43 | 0.19 | 5.20E+10
3 | CCCCCCCCCC(=O)OCCCC(C)(C)CCCN(CCCO)CCCCCCC(=O)OCC(CCCCCCCC)CCCCCCCC [82b] | 90.71 | 99.57 | 0.16 | 5.03E+10
4 | CCCCCCCCCC(=O)OCCCC(C)(C)CCCN(CCCO)CCCCCCC(=O)OCCCC(CCCCCC)CCCCCC [83b] | 95.70 | 100.67 | 0.10 | 1.62E+10
5 | CCCCCCCCCC(=O)OCCCC(C)(C)CCCN(CCCCO)CCCCCCC(=O)OCC(CCCCCCCC)CCCCCCCC [84b] | 89.17 | 123.77 | 0.11 | 6.68E+10
6 | CCCCCCCCCCCC(=O)OCC(C)(C)CCCCCN(CCCO)CCCCCCC(=O)OCC(CCCCCCCCCC)CCCCCCCCCC [86b] | 94.74 | 92.26 | 0.13 | 1.01E+11
7 | CCCCCCCCCCCC(=O)OCC(C)(C)CCCCCN(CCCCO)CCCCCCCCC(=O)OCC(CCCCCCCC)CCCCCCCC [90b] | 91.21 | 109.57 | 0.08 | 4.72E+10
8 | CCCCCCCCCCCC(=O)OCC(C)(C)CCCCCN(CCCCO)CCCCCCC(=O)OCC(CCCCCCCCCC)CCCCCCCCCC [91b] | 91.95 | 96.43 | 0.12 | 8.66E+10
9 | CCCCCCCCCC(=O)OCCCC(C)(C)CCCN(CCCO)CCCCCCC(=O)OCCC(CCCCCCC)CCCCCCC [92b] | 92.47 | 99.90 | 0.15 | 3.74E+10
10 | CCCCCCCCCC(=O)OCCCC(C)(C)CCCN(CCCCO)CCCCCCC(=O)OCCC(CCCCCCC)CCCCCCC [93b] | 90.17 | 141.73 | 0.10 | 2.45E+10
11 | CCCCCCCCCC(=O)OCCCC(C)(C)CCCN(CCCCO)CCCCCCC(=O)OCCCC(CCCCCC)CCCCCC [94b] | 93.55 | 125.60 | 0.11 | 2.23E+10
12 | CCCCCCCCCCC(=O)OCCCC(C)(C)CCCN(CCO)CCCCCCC(=O)OCC(CCCCCCCCC)CCCCCCCCC [95b] | 95.41 | 84.62 | 0.15 | 2.44E+10
13 | CCCCCCCCCCC(=O)OCCCC(C)(C)CCCN(CCO)CCCCCCCCC(=O)OCC(CCCCCCC)CCCCCCC [96b] | 92.10 | 97.75 | 0.15 | 3.77E+10
14 | CCCCCCCCCCC(=O)OCCC(C)(C)CCCCN(CCCO)CCCCCCCC(=O)OCC(CCCCCCCC)CCCCCCCC [100b] | 91.14 | 101.50 | 0.12 | 8.51E+10
15 | CCCCCCCCCCC(=O)OCCC(C)(C)CCCCN(CCCCO)CCCCCCCC(=O)OCC(CCCCCCCC)CCCCCCCC [101b] | 81.76 | 126.00 | 0.10 | 5.39E+10
16 | CCCCCCCCCC(=O)OCCC(C)(C)CCCCN(CCO)CCCCCCC(=O)OCCC(CCCCCCC)CCCCCCC [102b] | 93.92 | 92.12 | 0.16 | 7.52E+10
17 | CCCCCCCCCC(=O)OCCC(C)(C)CCCCN(CCCO)CCCCCCC(=O)OCCC(CCCCCCC)CCCCCCC [103b] | 94.07 | 96.82 | 0.11 | 5.95E+10

Second part, led by results:

Row | Encapsulation efficiency (%) [1] [%] | Particle size (nm) [2] [nm] | Particle-size distribution (PDI) [2] | Structure (SMILES) | Total photon count in vivo at 6 hours after administration (Total Flux) (C57BL/6 mice)
18 | 92.85 | 99.27 | 0.15 | CCCCCCCCCCC(=O)OCC(C)(C)CCCCCN(CCCO)CCCCCCCCC(=O)OCC(CCCCCCC)CCCCCCC [79b] | 1.62E+11
19 | 95.44 | 92.14 | 0.17 | CCCCCCCCCCC(=O)OCC(C)(C)CCCCCN(CCCO)CCCCCCC(=O)OCC(CCCCCCCCC)CCCCCCCCC [85b] | 9.61E+10
20 | 94.16 | 92.25 | 0.22 | CCCCCCCCCCC(=O)OCC(C)(C)CCCCCN(CCO)CCCCCCCCC(=O)OCC(CCCCCCC)CCCCCCC [87b] | 1.35E+11
21 | 94.68 | 98.16 | 0.12 | CCCCCCCCCCCC(=O)OCC(C)(C)CCCCCN(CCCO)CCCCCCCCC(=O)OCC(CCCCCCCC)CCCCCCCC [88b] | 4.51E+10
22 | 84.88 | 122.20 | 0.08 | CCCCCCCCCCC(=O)OCC(C)(C)CCCCCN(CCCCO)CCCCCCCCC(=O)OCC(CCCCCCC)CCCCCCC [89b] | 5.51E+10
23 | 93.79 | 85.56 | 0.14 | CCCCCCCCCCCC(=O)OCC(C)(C)CCCCCN(CCO)CCCCCCC(=O)OCC(CCCCCCCCCC)CCCCCCCCCC [97b] | 9.01E+10
24 | 93.04 | 87.99 | 0.18 | CCCCCCCCCCCC(=O)OCC(C)(C)CCCCCN(CCO)CCCCCCCCC(=O)OCC(CCCCCCCC)CCCCCCCC [98b] | 1.07E+11
25 | 92.70 | 85.13 | 0.15 | CCCCCCCCCCC(=O)OCCC(C)(C)CCCCN(CCO)CCCCCCCC(=O)OCC(CCCCCCCC)CCCCCCCC [99b] | 4.78E+10
